Results as given in patent US20210154208A1, “Method to Identify Agents That Can Overcome Inhibition Caused By Drug-protein Binding of the Human Plasma Protein, Alpha-1-acid Glycoprotein” (The Johns Hopkins University, priority 2019, published 2021).

Key:
HL-60 cells = test: Modified PIA with purified AGP, anti-proliferative effect of staurosporine; type: cell-based, human; conditions: HL-60 cells (FLT3 wild-type AML)
Text: (§1) Where Δ is the fold-change in IC50, KA is the drug-protein association constant, P0 is the total protein concentration and PA is the drug-bound protein concentration. From this relationship, in the absence of other drug-protein interactions, fold-change is linearly related to drug-free protein concentration. […] When the analysis also takes into account drug-bound protein, these curves can be used to directly measure KA. To that end, we performed the modified PIA using purified AGP against the staurosporine-derived FLT3 TKI, using MOLM-14 cells (FIG. 4A). For comparison, we also assayed the anti-proliferative effects of non-specific protein kinase C inhibition by staurosporine itself in HL-60 cells (FLT3 wild-type AML).
Cells in logarithmic growth are resuspended in either human plasma or serum-free RPMI 1640 media supplemented with the plasma protein of interest and seeded in 96-well format at 50 μL per well. Cell density is 2×10^5 cells per well for MOLM-14 and Ba/F3-FLT3/ITD cells. To each well 50 μL of 2× drug dilution in RPMI 1640 media with 10% serum was added. Each condition is plated in quadruplicate. The cells are then incubated at 37° C. […] Optical absorbance at 570 nm is measured via plate reader (iMark, Bio-Rad), averaging across technical replicates.

MOLM-14 cells [1] = test: Modified PIA, MTT proliferation with purified human AGP; type: cell-based; conditions: for inhibition of TKI activity by purified human AGP: MOLM-14, purified human AGP at physiologic concentration (1 mg/mL), sub-physiologic also tested; for ability to displace TKI (TTT-3002, CEP-701) from AGP: MOLM-14, AGP 1.0 mg/mL, increasing doses of competitor, FIG. 13
Procedure: (§2) In the original plasma inhibitory assay (PIA), FLT3/ITD-expressing cells are co-incubated with plasma samples from patients receiving a FLT3 TKI, and Western blotting analysis of FLT3 auto-phosphorylation is used to measure the extent of FLT3 inhibitory activity present in their plasma.(9) This can then be compared to total plasma drug levels to determine the relative efficacy of a drug in vivo compared to its activity in vitro. […] To model these effects in the pre-clinical setting, we modified the PIA assay. Whereas the PIA was designed to assess in vivo drug activity with regards to a specific target (e.g.: inhibition of FLT3 auto-phosphorylation by TKI), the modified PIA is similarly cell-based, but measures the clinically relevant biological end-points of cytotoxicity and proliferation inhibition, instead of target inhibition. In the modified assay, FLT3/ITD cell lines are cultured in the presence of human plasma or purified human plasma proteins and treated with a range of concentrations of the drug of interest. […] Furthermore, like the original PIA, Western blot analysis can be performed on cells treated in this manner to study specific pathways of interest (FIG. 1B). […] The modified PIA utilizes the general endpoint of cytotoxicity.
as §1
(§3) Cells in logarithmic growth are resuspended in either human plasma or serum-free RPMI 1640 media supplemented with the plasma protein of interest and seeded in 96-well format at 50 μL per well. Cell density is 2×10^5 cells per well for MOLM-14 and Ba/F3-FLT3/ITD cells. To each well 50 μL of 2× drug dilution in RPMI 1640 media with 10% serum was added. Each condition is plated in quadruplicate. The cells are then incubated at 37° C. After 44 hours of treatment, 10 μL of 5 mg/mL thiazolyl blue tetrazolium bromide (MTT, Sigma) in PBS, sterile-filtered, is added to each well, and the plates are incubated for an additional 4 hours at 37° C. 100 of 10% sodium dodecyl sulfate (JT Baker) in 10 mM hydrochloric acid (Fisher) is then added to each well, and the plates are incubated at 37° C. overnight. Optical absorbance at 570 nm is measured via plate reader (iMark, Bio-Rad), averaging across technical replicates.

MOLM-14 cells [2] = test: Modified plasma inhibition assay (PIA), MTT proliferation in 50% human plasma; type: cell-based; conditions: MOLM-14, 48 hours; for fold inhibition (increase in IC50) in the presence of 50% human plasma: MTT, 50% human plasma vs 10% FBS
Procedure: as §2
as §3, with “100 of 10% sodium dodecyl sulfate (JT Baker) in 10 mM hydrochloric acid (Fisher) is then added to each well, and the plates are incubated at 37° C. overnight.” left out

FLT3 = test: Western blot of FLT3 autophosphorylation and downstream signaling; type: cell-based, human
Procedure: Cells in logarithmic growth are resuspended in either plasma or RPMI 1640 media supplemented with either 10% FBS serum or physiologic concentrations of purified plasma proteins. The cells are cultured for 1 hour at 37° C. in the presence of drug(s) with intermittent shaking. The cells are then washed, lysed with RIPA buffer (Sigma) per manufacturer's protocol, and total cell lysates separated by sodium dodecyl sulfate polyacrylamide gel electrophoresis (Invitrogen) with Western transfer onto polyvinyl difluoride membranes (Millipore). The membranes are probed for FLT3 by using the S-18 antibody (Santa Cruz), or for other proteins using the indicated antibodies (Cell Signaling Technology), followed by horseradish peroxidase-conjugated goat anti-rabbit secondary antibodies with enhanced chemiluminescence detection (Bio-Rad).

Ba/F3-FLT3/ITD-Luc cells = test: Ba/F3-FLT3/ITD-Luc engrafted mouse model with human AGP, bioluminescent imaging; type: in vivo, BALB/c mice; conditions: mifepristone by oral gavage during treatment, imaged day 9
Procedure: We transplanted sublethally-irradiated BALB/c mice with Ba/F3-FLT3/ITD-Luc cells (Ba/F3 cells expressing both FLT3/ITD and a luciferase reporter). […] Twenty-four hours after the final treatment (day 9), the mice were again imaged to assess response (FIG. 8C).
BALB/c mice were transplanted after 300 cGy of sublethal X-ray irradiation using a CIXD irradiator (Xstrahl). 5×10^5 Ba/F3-FLT3/ITD-Luc cells were injected via tail vein. Intraperitoneal injections were performed using PBS vehicle with human AGP (Sigma) at 20 mg/mL. […] Mifepristone (Sigma) was dissolved in 50% ethanol and 50% (2-hydroxypropyl)-□-cyclodextrin (Sigma) and administered by oral gavage every 48 hours. Mice were imaged by intraperitoneal injection of luciferin (3 mg) and visualizing on an IVIS Spectrum imager (Caliper LifeSciences) using Living Image software for analysis on day 5 (to monitor engraftment) and on day 9 (to assess drug effect).

AGP = AGP (Homo sapiens, UniProt P02763); conditions: reported value; cited from earlier work
AGP, sequence (P02763 19-201): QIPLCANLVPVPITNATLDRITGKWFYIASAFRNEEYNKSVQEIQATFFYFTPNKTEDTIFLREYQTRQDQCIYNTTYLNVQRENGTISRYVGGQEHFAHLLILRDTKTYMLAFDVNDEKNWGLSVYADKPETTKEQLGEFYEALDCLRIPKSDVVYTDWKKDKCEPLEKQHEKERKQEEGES

CN[C@@H]1C[C@H]2O[C@@](C)([C@@H]1OC)n1c3ccccc3c3c4c(c5c6ccccc6n2c5c31)C(=O)NC4 [staurosporine]
anti-proliferative activity in the presence of AGP (HL-60 cells): no appreciable activity in the presence of AGP until saturating concentrations of drug were used

C[C@]12O[C@H](C[C@]1(O)CO)n1c3ccccc3c3c4c(c5c6ccccc6n2c5c31)CNC4=O [lestaurtinib]
fold inhibition by AGP, predicted (MOLM-14 cells [1]; MOLM-14, purified AGP at physiologic concentrations, predicted): > 1000 fold | shift in IC50 with human AGP (MOLM-14 cells [1]; human AGP): 500 fold

CC(C)(C)c1cc(NC(=O)Nc2ccc(-c3cn4c(n3)sc3cc(OCCN5CCOCC5)ccc34)cc2)no1 [quizartinib]
fold inhibition (increase in IC50) in the presence of 50% human plasma (MOLM-14 cells [2]): 37 fold | inhibition of TKI activity by purified human AGP (MOLM-14 cells [1]): not significant inhibited

CNC(=O)c1cc(Oc2ccc(NC(=O)Nc3ccc(Cl)c(C(F)(F)F)c3)cc2)ccn1 [sorafenib]
inhibition of TKI activity by purified human AGP (MOLM-14 cells [1]): not significant inhibited

CN(C)CCC=C1c2ccccc2CCc2ccccc21 [amitriptyline]
ability to displace TKI (TTT-3002, CEP-701) from AGP (MOLM-14 cells [1]): cannot displace the more tightly-bound TKI from AGP

O=C1CCC(N2C(=O)c3ccccc3C2=O)C(=O)N1 (centres unmarked) [thalidomide]
ability to displace TKI (TTT-3002, CEP-701) from AGP (MOLM-14 cells [1]): cannot displace the more tightly-bound TKI from AGP

CNC(=O)[C@@]1(N)C[C@H]2O[C@]1(C)n1c3ccccc3c3c4c(c5c6ccccc6n2c5c31)C(=O)NC4 [TTT-3002]
effect of human plasma on IC50 (MOLM-14 cells [2]; 50% human plasma vs 10% fetal bovine serum): significantly increased the IC50 | fold inhibition (increase in IC50) in the presence of 50% human plasma (MOLM-14 cells [2]): 9 fold | inhibition of FLT3 phosphorylation in the presence of human plasma (FLT3; MOLM-14, 1 hour, TKI 10 nM and 100 nM, human plasma): significant decrease in inhibition of FLT3 phosphorylation | fold inhibition by AGP (fold-change in IC50) (MOLM-14 cells [1]; MOLM-14, purified AGP at physiologic concentrations): 30 fold | inhibition of TKI activity by purified human AGP (MOLM-14 cells [1]): comparable inhibition to that observed with human plasma

CC#C[C@]1(O)CC[C@H]2[C@@H]3CCC4=CC(=O)CCC4=C3[C@@H](c3ccc(N(C)C)cc3)C[C@@]21C [mifepristone]
restoration of FLT3 inhibition by TTT-3002 in the presence of AGP (FLT3; MOLM-14, TTT-3002 (2 nM), inhibiting AGP, increasing mifepristone): dose-dependent restoration of FLT3 inhibition | effect of agent alone on FLT3 autophosphorylation or downstream signaling (FLT3; MOLM-14, mifepristone alone): no effect | effect of agent alone on cell growth (MOLM-14 cells [1]; MOLM-14, concentrations of maximal disinhibiting effect): no appreciable effect on cell growth | effect on TTT-3002 dose-response curve in the presence of purified AGP (MOLM-14 cells [1]; MOLM-14, increasing concentrations of mifepristone, TTT-3002 plus AGP): dose-response curve shifted back to that seen in the absence of AGP | effect on TTT-3002 dose-response curves in the absence of AGP (MOLM-14 cells [1]; MOLM-14, no AGP): no impact | response of FLT3/ITD-expressing cells (bioluminescence), mifepristone added to midostaurin/AGP (Ba/F3-FLT3/ITD-Luc cells): regression of the transplanted cells at levels comparable to those of the midostaurin alone treated mice | KA (association constant with AGP) (AGP): 7 to 8 µM⁻¹
